Results from ChEMBL document CHEMBL1201862, “PubChem BioAssay data set” (2004).
Active and inactive are the calls of the source.

Assays:
Cytochrome P450 2D6 = Cytochrome P450 2D6 (Homo sapiens, UniProt P10635); assay: qHTS Assay for Inhibitors and Substrates of Cytochrome P450 2D6. [Related pubchem assays: 410 ]; format: ADME; conditions: read-out: Potency
Streptococcus = assay: Luminescence Microorganism-Based Dose Response Follow up to Identify Compounds Cytotoxic to Streptococcus. [Related pubchem assays: 1677 (Project Summary), 1915, 1914, 1902 (Retest at Dose), 1900 (Counter Screen), 1662 (Primary HTS)]; format: functional, organism-based
[1] = target: Dual specificity tyrosine-phosphorylation-regulated kinase 1A (Rattus norvegicus, UniProt Q63470); format: biochemical, Homo sapiens
[2] = target: T1, Mitochondrial peptide methionine sulfoxide reductase (Bos taurus, UniProt P54149); format: functional;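 further: absorbance read-out, biochemical high-throughput dose-response screen for MsrA inhibitors, confirmatory; recombinant bovine MsrA coupled to E. coli TrxB with NADPH and selenocystamine; potency is for inhibitors of MsrA activity on DMSO substrate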
T1 sequence (P54149 whole entry): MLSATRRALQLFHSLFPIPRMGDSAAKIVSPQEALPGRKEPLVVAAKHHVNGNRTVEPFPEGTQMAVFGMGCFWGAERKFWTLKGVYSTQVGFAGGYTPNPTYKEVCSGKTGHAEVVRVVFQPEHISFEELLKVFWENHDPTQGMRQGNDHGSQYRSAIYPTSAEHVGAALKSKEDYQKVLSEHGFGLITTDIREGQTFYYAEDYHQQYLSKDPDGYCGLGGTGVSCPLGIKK

Cytochrome P450 3A4 = Cytochrome P450 3A4 (Homo sapiens, UniProt P08684); conditions: read-out: Potency;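 further: confirmatory qHTS run detecting inhibitors and substrates of CYP3A4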
[3] = target: Luciferin 4-monooxygenase (Photinus pyralis, UniProt P08659); assay: Counter Screen for Luciferase-based Assay Positives. [Related pubchem assays: 620, 618, 411 ]
HT-1080 = assay: cytotoxicity in HT1080 fibrosarcoma cells, cell-based, fluorescence readout (AID 620); format: functional; conditions: Homo sapiens
[4] = target: Eukaryotic translation initiation factor 4H (Homo sapiens, UniProt Q15056); assay: human eIF4H binding inhibitors, primary screen, translation initiation inhibitor project, biochemical, uHTS, fluorescence polarization (AID 2012)
[5] = target: Polyadenylate-binding protein 1 (Homo sapiens, UniProt P11940); assay: PABP poly(A) RNA binding inhibitors, primary screen, biochemical, fluorescence polarization, uHTS (AID 2014)
Sequence of Polyadenylate-binding protein 1 (P11940 whole entry): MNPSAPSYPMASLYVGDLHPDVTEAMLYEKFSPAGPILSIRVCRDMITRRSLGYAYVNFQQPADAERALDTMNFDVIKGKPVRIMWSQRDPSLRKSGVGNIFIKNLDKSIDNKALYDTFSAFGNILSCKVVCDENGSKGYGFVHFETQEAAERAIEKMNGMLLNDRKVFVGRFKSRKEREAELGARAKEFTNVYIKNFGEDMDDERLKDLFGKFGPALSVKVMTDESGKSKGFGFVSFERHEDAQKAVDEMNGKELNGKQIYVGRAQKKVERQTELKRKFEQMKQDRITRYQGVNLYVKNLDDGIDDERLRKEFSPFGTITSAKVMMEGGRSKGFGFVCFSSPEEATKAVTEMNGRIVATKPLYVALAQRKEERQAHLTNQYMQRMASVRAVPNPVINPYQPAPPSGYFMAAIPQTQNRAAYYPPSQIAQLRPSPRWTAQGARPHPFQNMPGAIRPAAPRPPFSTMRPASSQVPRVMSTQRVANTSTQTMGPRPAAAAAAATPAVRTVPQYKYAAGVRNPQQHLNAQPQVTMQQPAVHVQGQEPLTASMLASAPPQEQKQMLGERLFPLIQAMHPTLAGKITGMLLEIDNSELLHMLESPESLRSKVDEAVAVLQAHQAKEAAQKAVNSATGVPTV

Sequence of Luciferin 4-monooxygenase (P08659 whole entry): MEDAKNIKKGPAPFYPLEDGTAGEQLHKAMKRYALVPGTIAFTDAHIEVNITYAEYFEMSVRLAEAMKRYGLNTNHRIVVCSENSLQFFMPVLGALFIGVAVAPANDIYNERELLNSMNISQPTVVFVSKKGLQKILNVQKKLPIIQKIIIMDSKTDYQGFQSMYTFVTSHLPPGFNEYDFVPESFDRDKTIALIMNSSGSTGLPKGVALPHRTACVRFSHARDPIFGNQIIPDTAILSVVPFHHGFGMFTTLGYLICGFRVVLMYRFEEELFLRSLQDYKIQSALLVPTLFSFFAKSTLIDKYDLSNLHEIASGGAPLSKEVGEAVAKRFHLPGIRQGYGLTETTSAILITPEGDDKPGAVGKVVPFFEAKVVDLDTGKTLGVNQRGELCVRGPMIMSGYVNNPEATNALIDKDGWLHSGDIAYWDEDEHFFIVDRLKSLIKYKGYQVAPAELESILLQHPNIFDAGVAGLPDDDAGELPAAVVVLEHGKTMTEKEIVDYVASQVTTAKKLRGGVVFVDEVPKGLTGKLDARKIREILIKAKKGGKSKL
Sequence of Cytochrome P450 3A4 (P08684 whole entry): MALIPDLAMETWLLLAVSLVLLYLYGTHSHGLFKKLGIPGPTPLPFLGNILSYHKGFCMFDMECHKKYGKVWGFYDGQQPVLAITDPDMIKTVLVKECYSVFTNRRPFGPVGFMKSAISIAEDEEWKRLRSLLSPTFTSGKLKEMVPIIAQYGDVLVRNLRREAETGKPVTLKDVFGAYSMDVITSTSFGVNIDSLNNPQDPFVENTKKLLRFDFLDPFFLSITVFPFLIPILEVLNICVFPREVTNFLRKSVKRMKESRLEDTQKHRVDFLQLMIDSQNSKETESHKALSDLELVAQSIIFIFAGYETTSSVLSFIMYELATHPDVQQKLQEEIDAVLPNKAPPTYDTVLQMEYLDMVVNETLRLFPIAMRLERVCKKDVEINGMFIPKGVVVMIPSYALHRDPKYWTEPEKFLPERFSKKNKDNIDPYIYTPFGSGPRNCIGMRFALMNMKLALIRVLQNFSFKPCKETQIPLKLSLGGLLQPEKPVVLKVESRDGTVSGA
Sequence of Cytochrome P450 2D6 (P10635 whole entry): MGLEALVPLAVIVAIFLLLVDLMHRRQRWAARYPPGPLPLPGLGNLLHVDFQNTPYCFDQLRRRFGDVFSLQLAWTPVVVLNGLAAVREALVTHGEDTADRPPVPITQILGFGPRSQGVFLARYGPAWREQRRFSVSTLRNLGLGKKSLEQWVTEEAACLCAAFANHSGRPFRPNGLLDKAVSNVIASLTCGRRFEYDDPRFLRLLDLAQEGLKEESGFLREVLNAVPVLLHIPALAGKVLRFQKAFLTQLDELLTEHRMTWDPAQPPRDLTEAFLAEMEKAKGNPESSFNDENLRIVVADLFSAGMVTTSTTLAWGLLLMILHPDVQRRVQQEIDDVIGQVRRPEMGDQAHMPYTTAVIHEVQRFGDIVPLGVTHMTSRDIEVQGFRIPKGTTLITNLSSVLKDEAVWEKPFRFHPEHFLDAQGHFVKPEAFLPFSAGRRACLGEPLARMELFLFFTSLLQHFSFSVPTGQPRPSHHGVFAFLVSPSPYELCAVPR

In the case of CC[C@@H]1[C@H]2CCCCN3[C@@H]2[C@@H](C[C@H]3[C@@H]2C[C@H](C)C(=O)O2)[C@@H]2[C@H]1OC(=O)[C@H]2C, the AC50 (Cytochrome P450 2D6) is reported as 10 µM (inconclusive).
In the case of O=C(c1ccc(OC(F)(F)F)cc1)n1c2ccccc2c2ccccc21, the EC50 (Streptococcus) is reported as > 500 µM (not active).
In the case of COc1cc2c(cc1O)CC1c3c(cc(O)c(OC)c3-2)CCN1C (centres undefined), the AC50 [1] is reported as 3.83 µM (active), the IC50 [2] is reported as 53.9 µM (inactive) and the AC50 (Cytochrome P450 3A4) is reported as 25.1 µM (inconclusive).
In the case of COc1ccc(-c2cc(C(=O)O)c(C)o2)cc1OC, the EC50 [3] is reported as 4.68 µM (active) and the EC50 (HT-1080) is reported as > 50 µM (not active).
For CCCCn1cc[n+](-c2nc3c([N+](=O)[O-])cccc3n2C)c1, the IC50 [4] was > 100 µM (inactive) and the IC50 [5] was 4.55 µM (active).
